Experiment [1] has as its system osteosarcoma cell line U-2-OS. Briefly: In vitro cell proliferation inhibition assay (CellTiter-Glo, low amino acid media). Conditions: Homo sapiens, U2OS, 72 h, cell proliferation inhibitory rate, McCoy's 5A low amino acid media, Table 4-1. The experiment is classed as cell-based. In short, it runs like this: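 Cells seeded at 1000 per well in McCoy's 5A low amino acid medium (25% amino acid content), then exposed to compound for 72 h at 37° C., 5% CO2. ATP measured by CellTiter-Glo luminescence. Inhibition (%) at 100 nM calculated relative to pre-treatment and untreated control wells.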
(In general: Cellular ATP, detected with luciferase, serves as a proxy for viable cell number.)

Experiment [2] relates to human acute lymphoblastic leukemia cells CCRF-CEM. Briefly: In vivo tumor proliferation inhibitory assay with combined use of asparaginase (CCRF-CEM xenograft). Particulars: CCRF-CEM xenograft in SCID mouse; for in vivo tumor proliferation inhibitory rate (%), GCN2 inhibitor: GCN2 inhibitor alone. The text has this:
One million human acute lymphoblastic leukemia cells CCRF-CEM obtained from ATCC (American Type Culture Collection) were suspended in Matrigel solution (Corning) and implanted subcutaneously into 6-week-old female SCID mouse (CLEA Japan, Inc.) by injection. The mice in which the tumor engrafted to a size of about 200 mm^3 tumor volume after transplantation were selected and 5 mice per group were used for the experiment. A 0.5% methylcellulose suspension of the compound was orally administered twice per day for 9 days. Each compound was administered twice per day and the dose was 10 mg/kg for Example 14 and Example 7, and 6 mg/kg for Example 4. L-asparaginase (Kyowa Hakko Kogyo Co., Ltd.) was subcutaneously administered once per day at a dose of 1000 U/kg. Tumor diameter was measured one day before start of the administration and day 9 of the administration, and the tumor volume was calculated by the formula 1. tumor volume=major axis×minor axis×minor axis×(½) Formula 1
Tumor proliferation inhibitory rate (%) was calculated by the formula 2. tumor proliferation inhibitory rate (%)=(1−(T9−T0)/(C9−C0))×100 Formula 2 T9: average tumor volume of test drug administration group on day 9 of administration, T0: average tumor volume of test drug administration group one day before start of administration, C9: average tumor volume of control group on day 9 of administration, C0: average tumor volume of control group one day before start of administration

The subject of experiment [3] is ATF4 expression in CCRF-CEM tumor. Briefly: In vivo ATF4 expression suppression assay (Western blot of CCRF-CEM xenograft tumor) in the presence of L-asparaginase. Conditions: compound 10 mg/kg oral 8 hr before tumor removal, L-asparaginase 1000 U/kg s.c. 32 hr and 8 hr before, CCRF-CEM xenograft in SCID mouse. The source says:
One million human acute lymphoblastic leukemia cell lines CCRF-CEM obtained from ATCC (American Type Culture Collection) were suspended in Matrigel solution (Corning) and implanted subcutaneously into 6-week-old female SCID mouse (CLEA Japan, Inc.) by injection. The mice in which the tumor engrafted to a size of about 200-1000 mm^3 tumor volume after transplantation were selected and 3 mice per group were used for the experiment. L-asparaginase (Kyowa Hakko Kogyo Co., Ltd.) was subcutaneously administered at a dose of 1000 U/kg 32 hr and 8 hr before tumor removal. A 0.5% methylcellulose suspension of the compound was orally administered at a dose of 10 mg/kg 8 hr before tumor removal. After tumor removal, protein was extracted using Lysing Matrix I tube (MP Biomedicals) containing a protein extract (10% glycerol, 1% sodium dodecyl sulfate, 62.5 mM Tris-HCl [pH 7.5], protease and phosphatase inhibitors [Complete mini and PhosSTOP, Sigma-Aldrich Co. LLC.]) and subjected to Western blot.
Protein extract solution was subjected to protein quantification with BCA Protein Assay Kit (Thermo Scientific), electrophoresed on 7.5-15% SDS-PAGE gel (DRC), and protein in the gel was transferred to PVDF membrane. The membrane was blocked with Starting Block T20 (PBS) Blocking Buffer (Thermo Scientific). […] Thereafter, chemiluminescence was performed using ImmunoStar LD (Wako Pure Chemical Industries, Ltd.), and luminescence intensity was measured by LAS-3000 image analyzer (Fuji Film Co., Ltd.). Furthermore, the expression level of ATF4 was digitized by quantifying the luminescence intensity using Multi Gauge Ver. […]
Based on the ATF4 expression level of the control group orally administered with 0.5% methylcellulose suspension free of Example compound and the treatment group orally administered with Example compound suspension, the ATF4 expression inhibition ratio (%) of the test compound at a compound dose 10 mg/kg was calculated by the following formula and the results thereof are shown in Table 6. […]
A general note: Immunoblotting shows a protein as a band on a membrane.

The inhibition is the relative decrease from the control value, in per cent. The molecule `Nc1ncc(C#Cc2c(F)ccc(NS(=O)(=O)c3cc(Cl)cc(CO)c3Cl)c2F)cn1` [Example 4, N-(3-((2-aminopyrimidin-5-yl)ethynyl)-2,4-difluorophenyl)-2,5-dichloro-3-(hydroxymethyl)benzenesulfonamide] had an inhibition at 0.1 µM in experiment [1] of 90%. The “in vivo tumor proliferation inhibitory rate (%), GCN2 inhibitor” value in experiment [2] (6 mg/kg oral twice per day for 9 days) is given as 2%. The “in vivo tumor proliferation inhibitory rate (%), combined use” value in experiment [2] (compound 6 mg/kg oral twice per day for 9 days combined with L-asparaginase 1000 U/kg s.c. once per day) is on record as 60%. In addition, the “in vivo ATF4 expression inhibition ratio (%)” value in experiment [3] came to 76%.

Molecule `COc1ncc(Cl)cc1S(=O)(=O)Nc1ccc(F)c(C#Cc2cnc(N)nc2)c1F` [Example 7, N-(3-((2-aminopyrimidin-5-yl)ethynyl)-2,4-difluorophenyl)-5-chloro-2-methoxypyridine-3-sulfonamide] yielded an inhibition at 0.1 µM in experiment [1] of 96%. The “in vivo tumor proliferation inhibitory rate (%), GCN2 inhibitor” value in experiment [2] (10 mg/kg oral twice per day for 9 days) was determined as 7%. Further, the “in vivo tumor proliferation inhibitory rate (%), combined use” value in experiment [2] (compound 10 mg/kg oral twice per day for 9 days combined with L-asparaginase 1000 U/kg s.c. once per day) was 65%. Besides, the “in vivo ATF4 expression inhibition ratio (%)” value in experiment [3] stood at 74%.

(Values after patent publication US10696651B2, “Heterocyclic compound” (Takeda Pharmaceutical Company Limited, priority 2016, dated 2020).)
